“And” between values parts separate entries of the source, which are not always exact repeats. Equal values may be shown once.
What was measured:
[1] = test system: C8161 human melanoma cells; assay: Membrane Invasion Culture System (MICS) chemo-invasion assay; format: cell-based; details: 24 hours, + = increased invasiveness
Excerpt: (§1) Another objective was to analyze the effects of specific, tetracycline derived compounds on the in-vitro chemo-invasive potential of: • C8161 human melanoma cells • MDA-MB-231 human breast cancer cells • PC3 human prostate cancer cells • RPM18226 human myeloma cancer cells • Ark human myeloma cancer cells • Arp-1 human myeloma cancer cells
(§2) The Membrane Invasion Culture System (MICS) in vitro chemo-invasion assay was chosen to measure changes in the invasive potential of specific human cancer cells in response to tetracycline derived compounds. Stock solutions of each compound were hydrated in water containing 2% DMSO and pH 10.0. Upon solubilization, HCl was added to the solution to establish a pH of 7.5–8.0. This solution was then wrapped in foil and kept at 4° C. during the 24 hours of assay. Fresh compound was prepared for each assay. The in vitro chemoinvasion analyses for tumor cell invasiveness are performed using the Membrane Invasion Culture System (MICS) as previously described.
(§3) The MICS system is a thermally treated plastic manifold system consisting of two matched sets of plates containing fourteen wells, 13 mm in diameter. Interposed between these plates was a polycarbonate filter containing 10 μm pores and coated with a defined matrix composed of human laminin/collagen IV/gelatin that formed a 35 μm thick barrier between the top and bottom sections of the wells in MICS. Prior to placing this barrier in place, the lower wells were filled with serum-free RPMI culture medium made 50% in conditioned medium obtained from 2-day-old cultures of human fibroblasts which had been cleared of cells and cellular debris by either centrifugation, or filtering through a 0.45 μm sterile filter. The barrier was then placed on the lower wells and fresh serum-free medium added to the upper wells after assembly of the system. Fifty thousand tumor cells were then added to the wells either in the presence of the compound, or the DMSO vehicle (the controls). Of the 12 assay wells on each manifold, 3 randomized wells acted as controls, 3 wells received 1 μg/ml of compound, 3 received 10 μg/ml and 3 received 25 μg/ml. After 24 hours, cells and media were removed from the lower wells and replaced by phosphate buffered saline plus 2 mM EDTA. This solution was used to remove all cells from the lower well, and this wash was added to the recovered cells plus medium from the same well. These samples were then collected onto a polylysine containing polycarbonate membrane containing 3 μm pores using a Dot-Blot manifold system. These collection filters were then fixed in methanol, and stained using Wright's stain (Leukostat staining kit) in situ. The filters were then mounted on microscope slides with microscope immersion oil (which reduced the light refraction from the pores) and 5 microscopic fields were counted to calculate the number of cells which invaded through the membrane over the 24 hour period. These numbers were then statistically analyzed as discussed below.

[2] = test system: MDA-MB-231 human breast cancer cells; assay: as above; format: cell-based; details: 24 hours, + = increased invasiveness
Excerpt: as §1, §2, §3

[3] = test system: PC-3 ML human prostate cancer cells; assay: as above; format: cell-based; details: 24 hours, + = increased invasiveness
Excerpt: as §1, §2, §3

[4] = test system: RPMI-8226 human myeloma cancer cells; assay: as above; format: cell-based; details: 24 hours, + = increased invasiveness
Excerpt: as §1, §2, §3

Human recombinant MMP1 = biological target: T1, Human recombinant MMP1 (Homo sapiens, UniProt P03956); assay: MMP1 (Collagenase-1) inhibition, 14C collagen release; format: biochemical; details: 35° C., 5 hours; read-out: MMP-1 inhibitory activity, IC50
T1 sequence (P03956 100-469): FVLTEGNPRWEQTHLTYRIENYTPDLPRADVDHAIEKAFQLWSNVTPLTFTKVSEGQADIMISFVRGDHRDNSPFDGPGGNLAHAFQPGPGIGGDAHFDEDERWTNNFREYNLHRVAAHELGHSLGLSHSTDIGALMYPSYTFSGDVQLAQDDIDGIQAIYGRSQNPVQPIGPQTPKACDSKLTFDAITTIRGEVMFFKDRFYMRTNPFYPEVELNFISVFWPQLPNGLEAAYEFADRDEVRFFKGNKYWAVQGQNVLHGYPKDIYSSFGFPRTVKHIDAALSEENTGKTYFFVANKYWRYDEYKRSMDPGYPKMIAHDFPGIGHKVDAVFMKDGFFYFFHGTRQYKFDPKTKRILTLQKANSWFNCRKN

Human recombinant MMP9 = Human recombinant MMP9 (Homo sapiens, UniProt P14780); assay: MMP9 (Gelatinase B) inhibition, 14C gelatin release; format: biochemical; details: 37° C., 16 hours; read-out: MMP-9 inhibitory activity, IC50
Procedure: Protocol for Measuring MMP9 (Gelatinase B) Inhibition
MMP9 activity was determined by the release of trichloracetic acid, TCA soluble fragments from ^14C acetylated rat skin type I (Methods in Enzymology 248, 470, 1995. Biochem. J. 195, 1981)
• 100 μg ^14C labelled gelatin (collagen denatured 60° C. 20 min) • 50 mM Tris HCl pH 7.9 • 15 mM CaCl2, 0.02% azide • Human recombinant MMP9, 1.2–2 nM • ±Tetracycline (up to 1 mM) in a total volume of 250 μl.
Incubations were at 37° C. for 16 hours. The incubations were stopped by cooling the incubations and addition of 50 μl cold 90% (w/v) trichloracetic acid with careful mixing. TCA precipitation was allowed to proceed for 15 minutes at 4° C. prior to centrifugation at 10,000 g for 10 minutes at 4° C. 200 μl of the TCA supernatant was taken for the determination of radioactive content by scintillation counting (Packard Opti Phase Supermix scintillation fluid). Only data derived from within the linear part of the assay (10–70% lysis) were utilized. The percentage inhibition of MMP9 by each tetracycline concentration were plotted to derive the IC50 value.

MMP2 (Gelatinase A) = biological target: T2, MMP2 (Gelatinase A) (Homo sapiens, UniProt P08253); assay: MMP2 (Gelatinase A) inhibition, 14C gelatin release; format: biochemical; details: 37° C., 16 hours; read-out: MMP-2 inhibitory activity, IC50
T2 sequence (P08253 110-660): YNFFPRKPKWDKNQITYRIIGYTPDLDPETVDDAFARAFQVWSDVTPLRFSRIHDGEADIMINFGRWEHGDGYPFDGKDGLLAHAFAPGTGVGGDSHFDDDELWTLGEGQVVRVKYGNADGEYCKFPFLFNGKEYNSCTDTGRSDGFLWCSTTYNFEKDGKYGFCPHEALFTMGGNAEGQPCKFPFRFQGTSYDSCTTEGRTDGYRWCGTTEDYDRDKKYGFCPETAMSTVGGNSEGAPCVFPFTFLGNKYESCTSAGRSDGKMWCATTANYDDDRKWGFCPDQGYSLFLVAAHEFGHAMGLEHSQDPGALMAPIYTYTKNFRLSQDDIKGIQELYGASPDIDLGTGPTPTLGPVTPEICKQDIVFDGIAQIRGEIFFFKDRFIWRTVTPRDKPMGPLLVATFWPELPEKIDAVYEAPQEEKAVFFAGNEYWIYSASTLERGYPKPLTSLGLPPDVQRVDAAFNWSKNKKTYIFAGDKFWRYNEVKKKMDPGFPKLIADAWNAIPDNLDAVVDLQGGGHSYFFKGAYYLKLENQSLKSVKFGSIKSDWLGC

Human recombinant MMP14 = Human recombinant MMP14 (Homo sapiens, UniProt P50281); assay: MMP14 (MTI-MMP) inhibition, 14C collagen release; format: biochemical; details: 35° C., 15 hours; read-out: MMP-14 inhibitory activity, IC50
Human recombinant MMP3 = Human recombinant MMP3 (Homo sapiens, UniProt P08254); assay: MMP3 (Stromelysin 1) inhibition, 14C casein release; format: biochemical; details: 37° C., 16 hours; read-out: MMP-3 inhibitory activity, IC50
Chain of Human recombinant MMP3 (P08254 100-477): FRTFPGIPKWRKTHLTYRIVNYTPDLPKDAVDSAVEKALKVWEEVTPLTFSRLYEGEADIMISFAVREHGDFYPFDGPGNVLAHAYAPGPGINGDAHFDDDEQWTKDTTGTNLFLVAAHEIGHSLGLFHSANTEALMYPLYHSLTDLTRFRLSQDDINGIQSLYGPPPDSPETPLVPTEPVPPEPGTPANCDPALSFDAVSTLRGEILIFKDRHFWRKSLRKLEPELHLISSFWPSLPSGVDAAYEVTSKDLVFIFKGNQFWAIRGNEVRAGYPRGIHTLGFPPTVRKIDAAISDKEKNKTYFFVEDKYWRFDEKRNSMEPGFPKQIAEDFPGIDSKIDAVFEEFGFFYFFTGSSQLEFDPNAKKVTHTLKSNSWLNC
Procedure: Protocol for Measuring MMP3 (Stromelysin 1) Inhibition
• 100 μg ^14C casein (7000 dpm) • 50 mM Tris HCl, pH 7.9 • 15 mM CaCl2, 0.02% azide • Human recombinant MMP3, 0.25–1.0 nM • ±tetracycline (up to 1 mM) in a total volume of 250 μl.
Incubations were at 37° C. for 16 hours. The reaction was stopped by the addition of 500 μl cold 18% TCA and standing on ice for 15 minutes. TCA precipitates were removed by centrifugation at 10,000 g for 10 minutes at 4° C. and 200 μl supernatant was taken for scintillation counting. Only data derived from within the linear part of the assay (10–60% lysis) were utilized. The percentage inhibition of MMP3 by each concentration of the candidate tetracycline was plotted to derive the IC50 value, using linear regression analysis.

Chain of Human recombinant MMP9 (P14780 94-707): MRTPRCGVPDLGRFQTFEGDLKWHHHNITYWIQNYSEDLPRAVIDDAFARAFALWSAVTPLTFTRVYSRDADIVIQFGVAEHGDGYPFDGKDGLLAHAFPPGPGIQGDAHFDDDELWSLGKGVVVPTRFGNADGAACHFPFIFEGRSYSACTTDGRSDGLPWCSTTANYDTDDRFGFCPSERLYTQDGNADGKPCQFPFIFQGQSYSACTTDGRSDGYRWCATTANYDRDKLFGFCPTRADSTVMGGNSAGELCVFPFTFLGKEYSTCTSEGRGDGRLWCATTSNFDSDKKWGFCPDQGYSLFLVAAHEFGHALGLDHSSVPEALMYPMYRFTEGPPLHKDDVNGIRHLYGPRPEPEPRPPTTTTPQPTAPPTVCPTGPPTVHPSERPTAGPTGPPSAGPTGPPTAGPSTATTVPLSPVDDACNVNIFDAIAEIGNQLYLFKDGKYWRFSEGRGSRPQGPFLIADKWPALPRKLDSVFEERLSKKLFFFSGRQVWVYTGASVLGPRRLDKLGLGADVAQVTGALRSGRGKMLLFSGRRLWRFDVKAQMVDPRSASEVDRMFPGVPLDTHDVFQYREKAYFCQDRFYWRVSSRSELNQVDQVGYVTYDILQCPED

Row | Structure (SMILES) | percent inhibition, C8161 (Melanoma) ([1]; 1 ug/mL) | percent inhibition, C8161 (Melanoma) ([1]; 10 ug/mL) | percent inhibition, C8161 (Melanoma) ([1]; 25 ug/mL) | percent inhibition, MDA-MB-231 (Breast) ([2]; 1 ug/mL) | percent inhibition, MDA-MB-231 (Breast) ([2]; 10 ug/mL) | percent inhibition, MDA-MB-231 (Breast) ([2]; 25 ug/mL) | percent inhibition, PC-3 ML (Prostrate) ([3]; 1 ug/mL) | percent inhibition, PC-3 ML (Prostrate) ([3]; 10 ug/mL) | percent inhibition, PC-3 ML (Prostrate) ([3]; 25 ug/mL) | percent inhibition, RPMI-8226 (Multiple Myeloma) ([4]; 1 ug/mL) | percent inhibition, RPMI-8226 (Multiple Myeloma) ([4]; 10 ug/mL) | percent inhibition, RPMI-8226 (Multiple Myeloma) ([4]; 25 ug/mL) | IC50 (Human recombinant MMP1) | IC50 (Human recombinant MMP9) | IC50 (MMP2 (Gelatinase A)) | IC50 (Human recombinant MMP14) | IC50 (Human recombinant MMP3)
1 | CC1c2c(N(NC(=O)OCc3ccccc3)C(=O)OCc3ccccc3)ccc(O)c2C(=O)C2=C(O)C3(O)C(=O)C(C(N)=O)=C(O)C(N(C)C)C3C(O)C21.Cl (stereo not shown) [Compound 47, 7-(1,2-benzylcarboxyhydrazine)-6-deoxy-5-hydroxy-tetracycline HCl] | +30% | +4% | +2% | +17% | +16^B percent | 0% | 3% | 3% | 5% | 28% | 18% | 60^B percent | 318 µM | 88 µM | 117 µM | 60 µM | 68 µM
2 | CC(=O)OC1C2C(=C(O)C3(O)C(=O)C(C(N)=O)=C(O)C(N(C)C)C13)C(=O)c1c(O)cccc1C2C (stereo not shown) [Compound 28, 6-Deoxy-5-acetoxy-tetracycline H2SO4] | – | – | – | – | – | 54^B percent and 45^B percent | – | – | 80% and 61% | 4% and 5% | – | 34^B percent and 62^B percent | > 1000 µM | 125 µM | > 1000 µM | 49 µM | 231 µM
3 | CC(=O)N(CC(C)C)c1ccc(O)c2c1C(C)C1C(=C(O)C3(O)C(=O)C(C(N)=O)=C(O)C(N(C)C)C3C1O)C2=O.O=S(=O)(O)O (stereo not shown) [Compound 29, 7-Acetylisobutylamino-6-deoxy-5-hydroxytetracycline H2SO4] | – | – | – | – | – | – | – | – | 58% and 69% | – | 12% and 13% | – | 895 µM | 172 µM | 983 µM | 98 µM | 213 µM
4 | CC1c2c([N+]#N)cc(C(C)(C)C)c(O)c2C(=O)C2=C(O)C3(O)C(=O)C(C(N)=O)=C(O)CC3C(O)C21 (stereo not shown) [Compound 50, 4-Dedimethylamino-9-tertbutyl-6-deoxy-5-hydroxytetracycline-7-diazonium H2SO4] | 5% | +2% | 1% | 7% | 0% | 2% | +14% | +17% | +10% | +14% | +8% | +13% | 211 µM | 34 µM | 2530 µM | 40 µM | 48 µM
5 | CC1c2ccc([N+]#N)c(O)c2C(=O)C2=C(O)C3(O)C(=O)C(C(N)=O)=C(O)CC3C(O)C21.O=S(=O)([O-])O (stereo not shown) [Compound 37, 4-Dedimethylamino-6-deoxy-5-hydroxytetracycline-9-diazonium sulfate] | +1% | 20% | 69^B percent | +6% | 1% | 46^B percent | 11% | 26% | 36% | 10% | 5% | 46^B percent | 279 µM | 445 µM | > 1000 µM | 41 µM | 274 µM
6 | CC(C)CN(C)c1ccc(O)c2c1C(C)C1C(=C(O)C3(O)C(=O)C(C(N)=O)=C(O)C(N(C)C)C3C1O)C2=O (stereo not shown) [Compound 27, 7-Isobutylmethylamino-6-deoxy-5-hydroxytetracycline H2SO4] | – | – | – | – | – | 72^B percent and 48^B percent | 17^B percent and 9% | 35^B percent and 56^B percent | 70% | 24^B percent and 20% | 6% and 9% | – | 498 µM | 101 µM | 963 µM | 92 µM | 149 µM
7 | CC1c2cccc(O)c2C(=O)C2=C(O)C3(O)C(=O)C(C(N)=O)=C(O)C([N+](C)(C)C)C3C(O)C21.[I-] (stereo not shown) [Compound 46, 6-deoxy-5-hydroxytetracycline-4-Methiodide] | 21% | 7% | 10% | 20^B percent | +5% | +1% | 20% | 16% | 27^B percent | 7% | +11% | 12% | 194 µM | 59 µM | 3800 µM | 90 µM | 42 µM
8 | CC1c2ccc(C(C)(C)C)c(O)c2C(=O)C2=C(O)C3(O)C(=O)C(C(N)=O)=C(O)C(N(C)C)C3C(O)C21 (stereo not shown) [Compound 39, 9-tertbutyl-6-deoxy-5-hydroxytetracycline H2SO4] | 10% | 11% | 24% | 18^B percent | 29^B percent | 76^B percent | 44^B percent | 67^B percent | 69^B percent | 5% | 10% | 46^B percent | 860 µM | 114 µM | 186 µM | 83 µM | 682 µM
